Measurements reported in paper PMC5517430, “2,3,7,8-Tetrachlorodibenzo-p-dioxin (TCDD)-elicited effects on bile acid homeostasis: Alterations in biosynthesis, enterohepatic circulation, and microbial metabolism” (Scientific Reports, 2017).

Key:
[1] = parameters: method as in PMID 19660807, PMID 8145287; settings: humans; cited from earlier work
liver of C57BL/6 mice = assay: QuHAnT quantitation of Oil Red O staining (hepatic fat accumulation); format: in vivo, mouse; settings: 30 µg/kg TCDD every 4 d for 28 d
Procedure: All processing was performed by the MSU Investigative Histopathology Laboratory (https://humanpathology.natsci.msu.edu/). Formalin-fixed hepatic tissues were vacuum infiltrated with paraffin using a Tissue-Tek VIP 2000 tissue processor (Sakura) and embedded with the Thermo Fisher HistoCentre III Embedding Center (Thermo Fisher, Waltham, Massachusetts). Paraffin blocks were sectioned at 4–5 µm with a Reichert Jung 2030 rotary microtome (Reichert, Depew, New York) and dried for 2–24 h at 56 °C to ensure adherence to the slides. For lipid staining, liver sections frozen in O.C.T. compound were sectioned at 6 µm, fixed in 10% NBF for 5 min, rinsed with water, and immersed in 100% propylene glycol for 5 min. Liver sections were stained with hematoxylin and eosin (H&E) for general histological assessment. Lipids were stained using Oil Red O (ORO) as previously described. […]
Quantitation of ORO staining was performed using the Quantitative Histological Analysis Tool (QuHAnT)[66]. […] Using ImageJ (http://rsb.info.nih.gov.ij/), optimal hue, saturation, and value (HSV) image segmentation thresholds for feature extraction were determined to be 0 to 50 and 225 to 255 (hue), 125 to 255 (saturation), and 0 to 255 (value), while optimal total tissue feature extraction thresholds were 0 to 255 (hue), 20 to 255 (saturation), and 0 to 255 (value). […]

[2] = system: bsh and baiCD of gut microbiota; assay: Degenerate qRT-PCR of bacterial functional genes in fecal pellets; format: in vivo, mouse; settings: male mice, 30 µg/kg TCDD
Description: The bsh Hidden Markov Model (HMM) constructed by the Ribosomal Database Project consisted of 12 vetted seed sequences from Lactobacillus, Clostridium, Roseburia, Eubacterium, Butyrivibrio, and Streptococcus species, while the baiCD HMM consisted of 10 vetted seed sequences from Clostridium and Lachnospiraceae species. Using these models, more inclusive sequence sets were created for bsh and baiCD within the ‘FunGene functional gene pipeline & repository’[80] by extracting sequences from GenBank. Setting the HMM consensus percent identity cut-off to ≥40%, nucleotide sequences of bsh and baiCD were obtained from 2633 and 129 bacterial organisms, respectively. Given the diversity of bacterial organisms found to express bsh, the 2633 sequences from FunGene were separated into 4 groups based on nucleotide similarity determined through construction of a phylogenetic tree (Group 1: 423, Group 2: 330, Group 3: 955, Group 4: 925). Bacterial classifications (genus level) of the bsh sequences in each phylogenetic group are depicted in Fig. 8A1. […] The Primer Design terminal program developed by the Ribosomal Database Project (https://github.com/rdpstaff/PrimerDesign) was used to design degenerate primer sets which target conserved regions within baiCD and each phylogenetic group of bsh (Supplementary Table S2). To estimate the overall abundance of bile acid metabolism genes within the gut microbiome, primer sets were selected to target ≥75% of the baiCD sequences and the sequences within each bsh group.
Frozen fecal pellets were crushed into a powder and bacterial DNA was isolated using the QIAamp DNA Stool Mini Kit (Qiagen, Valencia, CA). To investigate bile acid metabolism loci, qRT-PCR was performed on a Bio-Rad CFX Connect Real-Time PCR Detection System as previously described. Gene expression relative to vehicle control was calculated using the 2^−∆∆CT method, with each fecal sample extract normalized to total bacterial DNA levels using universal primers targeting the 16 S ribosomal RNA gene[81]. Gene levels are plotted relative to vehicle control.

[3] = normalized to 16S rRNA gene, n = 2

## Clc1cc2c(cc1Cl)Oc1cc(Cl)c(Cl)cc1O2 [TCDD, 2,3,7,8-tetrachlorodibenzo-p-dioxin]
[1]
  Half-life: 1–11 years
Liver of C57BL/6 mice
  Hepatic fat accumulation (ORO), males compared to females: 6.2 fold
[2]
  bsh gene levels within phylogenetic group 4: unaffected
  bsh gene levels within phylogenetic groups 1, 2, and 3: increased
[2]; [3]
  Clostridium baiCD level (validated primers), fold increase: 2.1 fold
  bsh gene level, group 1 primer set 7, fold increase: 21.8 fold
  bsh gene level, group 1 primer set 8, fold increase: 7.3 fold
  bsh gene level, group 2 primer set 2, fold increase: 7.6 fold
  bsh gene level, group 2 primer set 11, fold increase: 7.5 fold
  bsh gene level, group 3 primer set 9, fold increase: 4.2 fold
